Measured values taken from ChEMBL document CHEMBL1201862, “PubChem BioAssay data set” (2004).
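Assay format: 96-well plates, 48-hour exposure. Here, GI50 denotes the concentration required for 50% inhibition of growth.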 Active and inactive are the calls of the source. Rule as the data show it: active = GI50 up to about 1.1 µM and inactive = higher.

Legend:
Test in all cases: inhibition of tumour cell growth, NCI panel, 48 h
COLO 205 = tested on: COLO 205
HOP-62 = tested on: HOP-62
HOP-92 = tested on: HOP-92
HT-29 = tested on: HT-29
Hs-578T = tested on: Hs-578T
K562 = tested on: K562
LOX IMVI = tested on: LOX IMVI
NCI-H23 = tested on: NCI-H23
NCI-H522 = tested on: NCI-H522
NCI/ADR-RES = tested on: NCI/ADR-RES
PC-3 = tested on: PC-3
SF-295 = tested on: SF-295
SF-539 = tested on: SF-539
SK-MEL-28 = tested on: SK-MEL-28
SK-MEL-2 = tested on: SK-MEL-2
SN12C = tested on: SN12C
SNB-19 = tested on: SNB-19
SR = tested on: SR
TK-10 = tested on: TK-10
UACC-62 = tested on: UACC-62

SMILES	GI50 (COLO 205)	GI50 (HOP-62)	GI50 (HOP-92)	GI50 (HT-29)	GI50 (Hs-578T)	GI50 (K562)	GI50 (LOX IMVI)	GI50 (NCI-H23)	GI50 (NCI-H522)	GI50 (NCI/ADR-RES)	GI50 (PC-3)	GI50 (SF-295)	GI50 (SF-539)	GI50 (SK-MEL-28)	GI50 (SK-MEL-2)	GI50 (SN12C)	GI50 (SNB-19)	GI50 (SR)	GI50 (TK-10)	GI50 (UACC-62)
NC(=O)c1ccc(N)nc1 [6-AMINONICOTINAMIDE]	14.2 µM (inactive)	12 µM (inactive)	213 µM (inactive)	3.93 µM (inactive)	6.17 µM (inactive)	16.7 µM (inactive)	3.35 µM (inactive)	9.98 µM (inactive)	99.8 µM (inactive)	> 245 µM (inactive)	29.7 µM (inactive)	5.07 µM (inactive)	8.43 µM (inactive)	3.37 µM (inactive)	124 µM (inactive)	15.9 µM (inactive)	14.7 µM (inactive)	14.3 µM (inactive)	> 400 µM (inactive)	16.1 µM (inactive)
COc1cc(C)cc(C(=O)OCc2ccccc2)c1C1=C(Cl)C(=O)C(Cl)=CC1=O	> 6.14 µM (inactive)	> 10 µM (inactive)	3.51 µM (inactive)	> 10 µM (inactive)	> 10 µM (inactive)	2.27 µM (inactive)	> 10 µM (inactive)	> 10 µM (inactive)	2.05 µM (inactive)	> 10 µM (inactive)	> 10 µM (inactive)	> 10 µM (inactive)	> 10 µM (inactive)	> 10 µM (inactive)	> 10 µM (inactive)	> 10 µM (inactive)	> 10 µM (inactive)	4.13 µM (inactive)	> 10 µM (inactive)	> 10 µM (inactive)
CCOC(=O)Cn1c(=O)c2nc(SC)sc2n(-c2ccccc2)c1=S	42.1 µM (inactive)	19.9 µM (inactive)	4.8 µM (inactive)	> 100 µM (inactive)	4.18 µM (inactive)	> 100 µM (inactive)	94 µM (inactive)	36.5 µM (inactive)	68.1 µM (inactive)	36.7 µM (inactive)	26.2 µM (inactive)	32.5 µM (inactive)	15.6 µM (inactive)	96.6 µM (inactive)	17.5 µM (inactive)	35.9 µM (inactive)	13.4 µM (inactive)	> 100 µM (inactive)	30.3 µM (inactive)	< 0.01 µM (active)
Cc1ccc(C2(C)CC/C(=N/N=C3/CCC(C)(c4ccc(C)c(C)c4)c4cc(C)c(C)cc43)c3cc(C)c(C)cc32)cc1C (stereo not given)	> 100 µM (inactive)	> 100 µM (inactive)	> 100 µM (inactive)	> 100 µM (inactive)	> 100 µM (inactive)	> 100 µM (inactive)	> 100 µM (inactive)	> 100 µM (inactive)	> 100 µM (inactive)	> 100 µM (inactive)	> 100 µM (inactive)	> 100 µM (inactive)	> 100 µM (inactive)	> 100 µM (inactive)	> 100 µM (inactive)	> 100 µM (inactive)	> 100 µM (inactive)	> 100 µM (inactive)	> 100 µM (inactive)	> 100 µM (inactive)
Nc1ccc2c(=O)cc(-c3cccs3)[nH]c2n1	0.716 µM (active)	7.31 µM (inactive)	9.1 µM (inactive)	3.66 µM (inactive)	3.66 µM (inactive)	0.847 µM (active)	1.07 µM (active)	2.89 µM (inactive)	1.36 µM (inactive)	1.06 µM (active)	1.74 µM (inactive)	3.1 µM (inactive)	1.48 µM (inactive)	4.32 µM (inactive)	6.32 µM (inactive)	5.16 µM (inactive)	7.38 µM (inactive)	0.151 µM (active)	7.13 µM (inactive)	2.3 µM (inactive)
CCOC(=O)C1=NNC(C(=O)c2ccccc2)C1c1ccccc1 (stereo not given)	2.05 µM (inactive)	12.2 µM (inactive)	2.07 µM (inactive)	2.28 µM (inactive)	4.12 µM (inactive)	1.47 µM (inactive)	2.32 µM (inactive)	2.42 µM (inactive)	1.15 µM (inactive)	4.35 µM (inactive)	10.4 µM (inactive)	16.9 µM (inactive)	2.17 µM (inactive)	1.91 µM (inactive)	16.2 µM (inactive)	2.08 µM (inactive)	14.4 µM (inactive)	1.81 µM (inactive)	2.25 µM (inactive)	3.18 µM (inactive)
Sc1nc2c(c(-c3nc(S)nc4c3CCCCCCCCCC4)n1)CCCCCCCCCC2	> 100 µM (inactive)	> 100 µM (inactive)	> 100 µM (inactive)	> 100 µM (inactive)	> 100 µM (inactive)	> 100 µM (inactive)	> 100 µM (inactive)	> 100 µM (inactive)	> 100 µM (inactive)	> 100 µM (inactive)	> 100 µM (inactive)	> 100 µM (inactive)	> 100 µM (inactive)	> 100 µM (inactive)	> 100 µM (inactive)	> 100 µM (inactive)	> 100 µM (inactive)	> 100 µM (inactive)	> 100 µM (inactive)	> 100 µM (inactive)
